“Also recorded” adds a separate entry of the source.
Tests used:
CMT1A transgenic mouse = settings: cited from earlier work
Pmp22 mRNA = settings: transgenic mouse; cited from earlier work
HSP27 S135F-MN = test: Moving mitochondria in motor neuron axons, microfluidic culture; type: cell-based, human
Excerpt: (§1) To use the neurons differentiated from CMT patient originated iPSCs as the CMT drug efficiency test model, moving mitochondria was investigated over the treatment of tubastatin A, the histon deacetylase 6 (HDAC6) inhibitor, through microfluidic culture, as shown in FIG. 13. And the axonal transport efficiency of motor neurons (CMT 2F-MN) was confirmed (FIG. 13).
(§2) Particularly, the CMT-2F-MN or WA09_MN obtained in Example <3-1> was separated as single cells by using accutase, which were then inoculated in microchannel plates (provided by Dr. Mok, Seoul National University, Korea; Park J W et al., Nat Protoc 2006; 1: 2128-2136) at the density of 1.0×10^5 cells/plate, followed by culture in neurobasal/B27 for 10 days. After axons were fully grown through micrometer-sized grooves and stretched to the opposite compartment, the processed motor neurons were transfected with mito-dsRED2 by using lipofectamine 2000 (Invitrogen, USA). Within 2 days from the transfection, 5˜10 μM tubastatin A was treated to the medium, followed by culture for 6 hours. Imaging of mitochondria was performed by using fluorescent microscope at the speed of 121 snaps/2 min. Moving velocity of the motor neuron was measured by using ImageJ and Kymograph.

WA09_hESC-MN = test: as above; type: cell-based, human; settings: 6 hours
Excerpt: as §1, §2

HSP27 P182L-MN = test: as above; type: cell-based, human
Excerpt: as §1, §2

CMT 2F-MN = test: α-tubulin acetylation in motor neurons (immunostaining, Western blotting); type: cell-based, human; settings: 5 μM tubastatin A, 12 hours, versus non-treated and normal control WA09_MN
Excerpt: To use the neurons differentiated from CMT patient originated iPSCs as the CMT drug efficiency test model, the recovery of axonal transport according to the treatment of tubastatin A, the histon deacetylase 6 (HDAC6) inhibitor, was investigated. CM2 subtype has heterogeneity in CMT causing gene, but nevertheless it causes malfunction in axonal transport system in many patients (Gentil B J and Cooper L, Brain Res Bull 2012; 88: 444-453). Therefore, the axonal transport efficiency of CMT 2F-MN was investigated by measuring the level of α-tubulin acetylation which was reported previously to be associated with the interaction between the vehicle and the motor protein (Westermann S and Weber K. Nat Rev Mol Cell Biol 2003; 4: 938-947).
Particularly, the CMT-2F-MN or WA09_MN differentiated by the same manner as described in Example <3-1> was treated with 5 μM tubastatin A, followed by culture for 12 hours. Then, the cells were immunostained with α-tubulin and acetylated α-tubulin by the same manner as described in Example <2-3>. […]
The CMT-2F-MN or WA09_MN treated with 5 μM tubastatin A was suspended in RIPA lysis buffer (pH 8.0) containing 150 mM NaCl, 1.0% NP-40, 0.5% sodium deoxycholate, 0.1% sodium dodecylsulfate, and 50 mM Tris. […] The band density was analyzed by using UN-SCAN-IT gel software in order to (Silk Scientific, USA) measure the level of α-tubulin acetylation. […]

myelinated nerve fibers = settings: cited from earlier work
[1] = CMT 2F-MN with S135F mutation, tubastatin A treated versus non-treated
[2] = CMT 2F-MN with P182L mutation, tubastatin A treated versus non-treated

Q: Which “phenotype of hereditary motor and sensory neuropathies” value (CMT1A transgenic mouse) does the source give for `O=C1O[C@H]([C@@H](O)CO)C(O)=C1O` [Ascorbic acid] here?
A: Its value is “improved”.

Q: What does the source list for `CN(C)c1ccc([C@H]2C[C@]3(C)[C@@H](CC[C@]3(O)CCCO)[C@@H]3CCC4=CC(=O)CCC4=C32)cc1` [onapristone]?
A: over-expression of Pmp22 mRNA (Pmp22 mRNA): suppressed; phenotype of hereditary motor and sensory neuropathies (Pmp22 mRNA): improved; side effects (Pmp22 mRNA): without side effects

Q: Which results are given for `CN1CCc2c(c3ccccc3n2Cc2ccc(C(=O)NO)cc2)C1` [tubastatin A]?
A: moving velocity of mitochondria, in words (HSP27 S135F-MN; [1]): significantly increased; transport frequency of mitochondria, in words (HSP27 S135F-MN; [1]): significantly increased; Moving velocity of mitochondria (HSP27 S135F-MN; HSP27 S135F-MN, 5 μM tubastatin A treated, 6 hours): 0.2498 ± 0.02357 μm/sec; Moving velocity of mitochondria (WA09_hESC-MN; 5 μM tubastatin A treated): 0.2446 ± 0.03859 μm/sec; Migration of mitochondria (number of moving mitochondria by total number) (WA09_hESC-MN; 10 μM tubastatin A treated): 39.31 ± 3.831%; moving velocity of mitochondria, in words (HSP27 P182L-MN; [2]): significantly increased; transport frequency of mitochondria, in words (HSP27 P182L-MN; [2]): significantly increased; Moving velocity of mitochondria (HSP27 P182L-MN; HSP27 P182L-MN, 5 μM tubastatin A treated, 6 hours): 0.2599 ± 0.05186 μm/sec; Migration of mitochondria (number of moving mitochondria by total number) (HSP27 P182L-MN; HSP27 P182L-MN, 10 μM tubastatin A treated, 6 hours): 44.61 ± 10.450%; level of α-tubulin acetylation (CMT 2F-MN): increased/recovered back to that of the normal control group; also recorded: significantly increased

B1: neurotrophin-3 (protein, UniProt P20783 139-257, looked up)
Neurotrophin-3: YAEHKSHRGEYSVCDSESLWVTDKSSAIDIRGHQVTVLGEIKTGNSPVKQYFYETRCKEARPVKNGCRGIDDKHWNSQCKTSQTYVRALTSENNKLVGWRWIRIDTSCVCALSRKIGRT
notes: neurotrophin reported to increase myelinated nerve fibers
Q: Which myelinated nerve fibers (myelinated nerve fibers) does the source give for B1 here?
A: The myelinated nerve fibers was “increased”.

Q: What about the sensor related symptoms (myelinated nerve fibers) of the same molecule?
A: Its sensor related symptoms is “improved”.

Source: US20160011177A1, “SCREENING METHOD FOR THERAPEUTIC AGENTS FOR CHARCOT-MARIE-TOOTH DISEASE AND SELF-DIFFERENTIATION MOTOR NEURONS USED THEREFOR” (Samsung Life Public Welfare Foundation, priority 2013, published 2016)
